Reference: patent US7638145B2, “Cultivated agarwood” (Regents of the University of Minnesota, priority 2001, dated 2009)

Legend:
Format in all cases: in vivo
[1] = tested on: Aquilaria trees; assay: Drill wounds treated with different compounds to stimulate agarwood production (Example 5); set-up: Area of discoloration: unit not given here; conditions: for microscopic observations of cells around treated wounds: Example 5; for agarwood induction versus control wounds (in words): Example 5 conclusion; for Area of discoloration: approx 0.1-0.2 g per drill wound; for effect on area of discoloration (in words): Example 5, at the concentrations tested
Description: To test if different types of compounds could stimulate agarwood production, ⅝ inch drill wounds were made approximately 5 cm into the main trunk of young plantation trees and different materials used to treat the drill wounds. Chemicals used were from Sigma Chemicals Inc. St. Louis, Mo. or Mallinckrodt Inc. Paris, Ky. One drill wound per tree received no treatment and others received one of the following treatments:
Chitosan—purified chitin approximately 0.2 g of chitin was added per wound
Formic acid—approximately 0.1 g of formic acid was added per wound
Sodium chloride—approximately 0.2 g added per wound
Cellobiose—approximately 0.2 grams added per wound
Lime—approximately 0.1 g calcium carbonate added per wound
Trees were harvested after 12, 18 and 21 months.

[2] = tested on: Aquilaria trees; assay: Scribed drill wounds with Basidiomycota cultures or chemicals in sawdust, Kon Tum and Nui Cam (Example 9); conditions: for effect on area of discoloration and agarwood resin (in words): Example 9 conclusion, sodium bisulfite 1:4, salicylic acid 1:2, ferrous chloride 1:4 in sawdust; for Area of discoloration: after 15 months, mean of two trees, chemicals approx 0.5 g in sterile Aquilaria sawdust
From the text: Young trees growing at two sites, in home gardens and on agricultural land (Kon Tum, Vietnam and Nui Cam, Vietnam), received 8 wounds per tree. Drill wounds ⅝ inch diameter were drilled approximately 5 cm into the main trunk of each tree in a spiral fashion separated by approximately 20 cm. All drill wounds were scribed to remove a 5×5 cm area of bark around the wound. Fungal treatments consisted of three different types of Basidiomycota obtained from Aquilaria trees in Vietnam. These isolates were not identified to genus but culture morphology indicated they were different genera. Cultures were grown on sterile rice supplemented with malt extract. Cultures were grown for three weeks before inoculation.
Treatments Included: • 1. Control wound receiving sterile rice • 2. Fungal culture 97-14-5 • 3. Fungal culture 97-13-7 • 4. Fungal culture 97-11-25 • 5. Control wound receiving 5 g sterile Aquilaria sawdust • 6. Approximately 0.5 g of a 1:4 ratio of sodium bisulfite and sterile Aquilaria sawdust • 7. Approximately 0.5 g of a 1:2 ratio of salicylic acid in sterile Aquilaria sawdust • 8. Approximately 0.5 g of a 1:4 ratio of ferrous chloride in sterile Aquilaria sawdust
After 15 months two trees were harvested from each location and brought to the laboratory for analyses. The mean area for each type of wound was calculated.

[3] = tested on: Aquilaria trees; assay: Wound types and treatments on plantation trees, Phu Quoc Island, image analyzer area (Example 8); conditions: for effect on area of discoloration and agarwood resin (in words): Example 8 conclusion; for Area of discoloration/resin: after 15 months, longitudinal plane, mean of 8 wounds, approx 0.3 g of agent mixed with sterile Aquilaria sawdust, drill wound plus 5x5 cm bark removed
From the text: Fourteen plantation grown trees on Phu Quoc Island were used to test different treatments. Each tree received 8 wounds that were spiraled up the main trunk of the tree separated by approximately 20 cm. A range of different types of wounds and treatments as well as controls were made on each tree. […] Trees were harvested after 15 months and taken to the laboratory for analyses.
Treatments Included: • 1. A surface wound approximately 5×5 cm was made by cutting the bark and removing the bark tissue to expose the xylem. No drill hole was made. • 3. A ⅝ inch drill wound was made approximately 5 cm into the xylem and a 5×5 cm section of the bark removed around the drill hole and approximately 0.3 g sterile Aquilaria sawdust added to the drill wound. • 4. Same as #3 but with approximately 0.3 g of a 1:1 ratio of ferrous chloride and sterile Aquilaria sawdust added to the drill wound. • 5. Same as #3 with approximately 0.3 g of a 1:2 ratio of NaCl and sterile Aquilaria sawdust added to the drill wound. • 6. Same as #3 but with approximately 0.3 g of a 1:4 ratio of Difco yeast extract and sterile Aquilaria sawdust. • 7. Same as #3 but with approximately 0.3 g of a 1:1 ratio of sodium bisulfite and sterile Aquilaria sawdust. • 8. Same as #3 but with approximately 0.3 g of a 1:2:4 ratio of Difco nutrient broth: Difco malt extract: sterile Aquilaria sawdust.
After 15 months, 8 trees were harvested and brought to the laboratory for analyses. The area of discoloration and resin formation was determined by splitting the tree through the wounded region and area affected measured using an image analyzer. Area (cm^2) was determined for all wounds in the longitudinal plane. Each value is a mean of 8 wounds.

Row | Structure (SMILES) | microscopic observations of cells around treated wounds [1] | agarwood induction versus control wounds (in words) [1] | Area of discoloration ([1]; after 12 months) | Area of discoloration ([1]; after 18 months) | Area of discoloration ([1]; after 21 months) | effect on area of discoloration and agarwood resin (in words) [2] | Area of discoloration ([2]; Location Kon Tum) [cm^2] | Area of discoloration ([2]; Location Nui Cam) [cm^2] | effect on area of discoloration and agarwood resin (in words) [3] | Area of discoloration/resin [3] [cm^2] | effect on area of discoloration (in words) [1]
1 | O=CO [Formic acid] | react extensively and phloem cells are filled with resin | induce greater amounts of agarwood than the control wounds | 28.5 | 18.6 | 31.8 |  |  |  |  |  | 
2 | O=S([O-])O.[Na+] [Sodium bisulfite, sodium bisulfite] |  |  |  |  |  | reduced amount of discoloration and agarwood resin | 52.3 | 56.9 | increase the area of discoloration within the tree and the amount of agarwood resin formed | 182.0 | 
3 | O=C(O)c1ccccc1O [Salicylic acid, salicylic acid] |  |  |  |  |  | did not produce large areas of discoloration | 16.9 | 25.5 |  |  | 
4 | O=C([O-])[O-].[Ca+2] [Lime, calcium carbonate] |  |  | 10.0 | 18.7 | 9.7 |  |  |  |  |  | do not increase the area of discoloration
5 | [Cl][Fe][Cl] [Ferrous chloride, ferrous chloride] |  |  |  |  |  | did not produce large areas of discoloration | 18.4 | 23.3 | increase the area of discoloration within the tree and the amount of agarwood resin formed | 112.5 | 
6 | O=C[C@H](O)[C@@H](O)[C@H](O[C@@H]1O[C@H](CO)[C@@H](O)[C@H](O)[C@H]1O)[C@H](O)CO [Cellobiose] |  |  | 9.9 | 20.3 | 7.4 |  |  |  |  |  | do not increase the area of discoloration
7 | [Cl-].[Na+] [NaCl, Sodium chloride] | react extensively and phloem cells are filled with resin | induce greater amounts of agarwood than the control wounds | 49.3 | 44.7 | 36.4 |  |  |  | increase the area of discoloration within the tree and the amount of agarwood resin formed | 48.1 | 
